The test system of one assay is H5N1 viruses. The class given is cell-based, influenza A virus H5N1. To be noted: 0.001-10 μM; MDCK monolayer; 5,000 pfu/ml; 3 days; FIG. 7 left panel.
Assay [1] deals with sciatic nerve injured limb (allodynia). Put plainly: von Foley hair test (mechanical stimulation) after partial sciatic nerve injury. The class given is in vivo, C57BL/6 male mice. Particulars: 2 mg i.p., N=6 per time point. On the procedure: (§1) Surgical procedures were performed under Halothane (2-3%) anesthesia. Partial sciatic nerve injury was made by tying a tight ligature with 9-0 silk suture around ⅓ to ½ the diameter of the sciatic nerve, as had been described (Malmberg A B and Basbaum A I. Pain 1998; 76:215-222). In mice with sham operation, the sciatic nerve was exposed but not ligated. The mice were subsequently habituated to the test environment for at least 1 hour before thermal test and von Foley hair test. In thermal test, the paw withdrawal latency was determined as an indicator for pain. […], the stimulus intensity was adjusted to give a 10-second withdrawal latency in the normal mouse, while the cutoff in the absence of a response was 20 seconds. The mechanical sensitivity with von Foley hairs was assessed by the up-down paradigm (Chaplan et al, J Neurosci Methods 1994; 53:53-66). The filament for the testing paradigm was chosen to be 0.3-gm.
The same animal model in example 3 was used. The peptide 5 as shown in SEQ ID NO: 5 was tested for its anti-allodynia effects in mice receiving sciatic nerve ligation. Results from the mechanical stimulation (von Foley test) of the sham operated mice and the nerve injured mice were compared in parallel on day 5, 10 and 30 after the surgery.

For the next assay, the system named is H1N1 viruses. The assay is classed as cell-based, influenza A virus H1N1. To be noted: 0.001-10 μM; MDCK monolayer; 5,000 pfu/ml; 3 days; FIG. 7 right panel.
Assay [2] has as its system sciatic nerve injured limb (hyperalgesia). Put plainly: thermal test (paw withdrawal latency) after partial sciatic nerve injury. The assay is classed as in vivo, C57BL/6 male mice. To be noted: 2 mg i.p., N=6; for temperature-induced pain, paw withdrawal latency: injured limb, day 5, 10 and 30 after surgery, vs untreated (DMSO solvent), FIG. 5. On the procedure: as §1
The peptide 5 as shown in SEQ ID NO: 5 was tested for its anti-hyperalgesia effects in mice receiving sciatic nerve ligation. Results from the thermal test of the sham operated mice and the nerve injured mice were compared in parallel on day 5, 10 and 30 after the surgery.

In assay [3] the test system is acute visceral pain model in mice. Put plainly: acute visceral pain model in mice (acetic acid writhing). Particulars: n=6.

Consider “DEAQETAVSSHEQD ((1)..(14) residues 1-14 of rabbit alpha1-antiproteinase F; listed as Oryctolagus cuniculus) [Peptide 5]”, for which the “inhibition of replication of H5N1 viruses in vitro” value in the assay with H5N1 viruses is listed as “potent effects in inhibiting the replication”. The “p (ANOVA), von Foley hair threshold, untreated vs treated injury-ipsilateral limb” value in assay [1] (day 5, 10 or 30) is given as under 0.005. For the same compound, the “allodynia, von Foley hair threshold” value in assay [1] (injured limb, day 5, 10 and 30 after surgery, vs untreated (pure water), FIG. 6, listed as peptide 5) is given as “significantly increase the tolerance to mechanical stimuli”. Further, in the assay on H1N1 viruses, the “inhibition of replication of H1N1 viruses in vitro” value is “potent effects in inhibiting the replication”. Further, the “p (ANOVA), paw withdrawal latency, untreated vs treated injured ipsilateral limb” value in assay [2] (day 5, 10 or 30) was under 0.005. Further, the “temperature-induced pain, paw withdrawal latency” value in assay [2] was “significantly reduced the temperature-induced pain”; in assay [2] (listed as peptide 5) it was “significantly increase the tolerance to the heat-induced pain”. Moreover, the “onset of the pain induced by intra-peritoneal injection of acetic acid (onset of the 1st writhing)” value in assay [3] (2 mg peptide i.p. 30 min before 1 ml 1% acetic acid i.p., control water alone, FIG. 3) was “significant delay in the onset of the pain”. Also, the “total writhing number in 30 minutes after acetic acid injection” value in assay [3] (2 mg peptide i.p. 30 min before 1 ml 1% acetic acid i.p., control water alone, FIG. 4) is “significant reduction in the total writhing number”; in assay [3] (2 mg peptide i.p. 30 min before 1 ml 1% acetic acid i.p., control water alone, FIG. 4, listed as peptide 5), “reduced total writhing episodes”.
As to `CN1CC[C@]23c4c5ccc(O)c4O[C@H]2[C@@H](O)C=C[C@H]3[C@H]1C5` [morphine, reference compound], in assay [3] (peptides 2 mg, morphine 1 mg i.p., FIG. 3), the “p, onset of pain, peptide 5 vs this substance” value is listed as over 0.05. Also, the “p, total writhing number in 30 minutes, peptide 5 vs this substance” value in assay [3] (peptides 2 mg, morphine 1 mg i.p., FIG. 4) was over 0.05.

The record behind these values is US9422336B2 (priority 2012, dated 2016).
